# Results from patent US20080299123A1, “TREATMENT OF CHEMOTHERAPY- OR RADIOTHERAPY-RESISTANT TUMORS” (Deutsches Krebsforschungszentrum Stiftung des offentlichen …, priority 2006, published 2008).
# Legend:
# L1CAM [1] = assay: L1CAM expression in PT45-P1res cells (western blotting, flow cytometry, real-time PCR); format: cell-based, human; settings: inhibitor 10 μmol/L, 24 hours
# Description: After washing in PBS, cells grown in 6-well culture plates were detached with 5 mmol/L EDTA in PBS and then washed with PBS once again. Blocking was conducted in 1% BSA/PBS for 60 min. at room temperature followed by incubation with the anti L1CAM antibody L1-11A or an isotype matched control antibody (1:1000, in 1% BSA/PBS) at 4° C. overnight. Then, cells were washed three times in PBS followed by incubation (60 min, 37° C.) with a goat-anti mouse antibody conjugated with Alexa flour 488 (Dianova, Hamburg, Germany) diluted 1:500 in 1% BSA/PBS. After washing in PBS, cells were resuspended in 500 μL PBS and analysed by fluorescence flow cytometry.
# (§1) Cells were seeded into 6 well and 12 well plates, respectively, and transfected or treated as indicated. Then, cells were washed once with PBS and lysed with 1 volume of 2×SDS sample buffer (128 mmol/L Tris-Base, 4.6% SDS, 10% glycerol). Samples were heated for 5 minutes at 95° C. and put on ice for 2 minutes. Protein concentrations were determined using the Dc Protein assay (BioRad). Ten μg of protein adjusted to an appropriate volume of SDS sample buffer containing 0.2 mg/mL bromphenolblue (Serva, Heidelberg, Germany) and 2.5% β-mercaptoethanol (Biomol, Hamburg, Germany) were submitted to electrophoresis on a 4-20% ProGel-Tris-glycin-gel (Anamed, Darmstadt, Germany) and immunoblotting was performed as described previously (Arlt et al, 2001). For detection of L1CAM, a monoclonal antibody (clone UJ127 from Acris Antibodies) was diluted at a concentration of 0.4 μg/mL in 5% nonfat milk powder and 0.05% Tween in TBS (blotto) and incubated overnight at 4° C. For detection of the cytoplasmic domain of L1CAM, the pcytL1 antibody (Mechtersheimer et al., 2001) was used at a concentration of 1 μg/mL in blotto and incubated overnight at 4° C. As control of equal protein load, a polyclonal rabbit antibody for HSP90 (Santa Cruz, Heidelberg, Germany) was diluted 1:2000 in blotto. The mouse anti CD51 antibody from Beckman Coulter GmbH (Krefeld, Germany) was used at a concentration of 1:500 in blotto for detection of human αv integrin. Incubation with the primary antibodies was performed overnight at 4° C. For detection of the primary antibodies, anti-mouse and anti-rabbit HRP-linked antibodies (Cell Signaling), respectively, were used at a dilution of 1:2000 in blotto-TBST at room temperature for 1 hour. After washing in TBST, blots were developed using the LumiGlo peroxidase detection kit (Cell Signaling).
# 2 μg of total RNA were reverse-transcribed into single-stranded cDNA, as described previously (Schafer et al., 1999). Two μL of cDNA and 0.2 μmol/L gene-specific primers were adjusted with RNAse-free water to a volume of 15 μL. To this mixture, 15 μL of iQ SYBR Green Supermix (BioRad) were added. Primers for the detection of L1CAM (Gavert et al., 2005) were used under the following conditions: 95° C./1 min; 95° C./1 min, 52° C./30 see, 72° C./30 see for 40 cycles; 72° C./10 min. Primers for the detection of iNOS were from Biosource (Ratingen, Germany) and used under the following PCR conditions: 95° C./5 min; 95° C./45 sec, 60° C./45 sec, 72° C./45 sec for 40 cycles; 72° C./10 min. For control, β-actin was amplified in parallel using primers from BD Biosciences Clontech. […] Data were collected during annealing steps and were further analysed by using the i-Cycler iQ Optical system software (BioRad). All samples were analysed in duplicates and data are expressed as amount of mRNA in arbitrary units.
# L1CAM [2] = assay: L1CAM cleavage by western blotting in L1CAM transfected PT45-P1 cells; format: cell-based, human; settings: inhibitor 10 μmol/L, 24 hours
# Description: PT45-P1res cells (a,b) or PT45-P1 cells transfected with L1CAM or an empty control vector (mock) (c,d) were left untreated (w/o) or were either treated with Tapi-0, Tapi-1, GM6001 or L685,458 (each 10 μmol/L) for 24 hours. (a,c) Cellular lysates were subjected to western blotting using either the antibody clone UJ127 from Acris detecting only full-length L1CAM or the pcytL1 antibody detecting also the cytoplasmic part of L1CAM. HSP90 was detected as a control for equal protein load. (b,d) Thirty minutes after treatment with the respective inhibitor, cells were either left untreated or treated with 20 μg/mL etoposide for 24 hours. Then, cells were analysed for caspase-3/-7 activity expressed as n-fold induction of caspase-3/-7 activity of basal. Means±SD from three independent experiments are shown. * indicates p<0.05.
# as §1
structure (smiles),measurement,setting,value
CC(C)C[C@H](CC(=O)NO)C(=O)N[C@@H](Cc1ccc2ccccc2c1)C(=O)N[C@@H](C)C(N)=O [TAPI-0],L1CAM expression (full-length 220 kDa and 32 kD fragment),L1CAM [1],neither of the inhibitors changed L1 CAM expression
same,expression of full-length L1CAM and level of the 32 kD fragment,L1CAM [2],did neither influence the expression of full-length L1CAM nor increased the level of the 32 kD fragment
